Data on six compounds can be found in US20210348125A1, “INDUCED STEM MEMORY T CELLS AND METHODS OF USE THEREOF” (Augusta University Research Institute, Inc., priority 2017, published 2021).

The test system of assay [1] is pMel-1 CD8^+ T-cells. The experiment in a line: In vitro activation of pMel-1 CD8+ T-cells with gp100 peptide with or without MEKi. It counts as cell-based, mouse. The procedure:
Mice and cell culture. 4-6-week-old C57BL/6 mice (wild-type (WT) and pMel-1) from Jackson Laboratory or in-house bred pMel-1 mice with transgenic CD8^+ T-cells having TCR from melanoma-specific gp10025-33 peptide were used as outlined in various experiments. Animals had free access to water and food. All experiments were performed under protocols approved by the Augusta University Georgia Cancer Center Institutional Animal Care and Use Committee (IACUC). Cancer cell lines used in the present study included TC1 (kindly provided by Dr. T-C Wu at Johns Hopkins University) and B16-melanoma (obtained from American Type Culture Collection (ATCC)). […] Primary murine CD8^+ cells were isolated by fluorescence-activated cell sorting (FACS) and in some cases by negative selection using magnetic beads (Miltenyi Biotec) and cultured in RPMI 1640 medium supplemented with 10% FBS, 2 mM glutamine, 10 mM HEPES and 55 μM β-mercaptoethanol. […]
Flow cytometry analyses. […] TMRM (Tetramethylrhodamine, methyl ester) is a cell-permeant, cationic, red-orange fluorescent dye that is readily sequestered by active mitochondria and has been used for estimation of mitochondrial potential was used as described before (Sukumar, M., et al., Cell Metabolism, 23: 63-76 (2016)). […]
Metabolic assays. […] OCR and ECAR were measured with an XFp flux analyzer (Seahorse Bioscience). […]

A further assay has as its system ERK1 or ERK2. Conditions: cited from earlier work.
For a further assay, the target named is MEK1 (Homo sapiens, UniProt Q02750). Particulars: cited from earlier work.
Assay [2] concerns Abl1, AKT3, c-RAF, CamK1, CDK2, c-Met. Conditions: cited from earlier work.
In a further assay the test system is AB1-HA tumor model. Particulars: CTX treatment at Day 9; cited from earlier work.
For assay [3], the system named is pMel-1 CD8^+ T-cells. Kind of assay: Antigen re-challenge (recall response) of activated CD8+ T-cells. It counts as cell-based, mouse. Conditions: re-challenge with gp100 peptide 72 hrs; vs untreated. From the text:
FIGS. 4A-4C show FACS analysis of memory phenotype of activated cells (gp100 vs gp100 +MEKi) after antigen (Ag) re-challenge with gp100 peptide for 72 hrs. […]. FIGS. 4M-4O show the scheme of ACT of B16 tumor-bearing mice with respectively activated CD8^+ T-cells as indicated FIG. 4M, estimation of tumor volume FIG. 4N and percent survival FIG. 4O in treated groups. FIGS. 4P-4R show the estimation of numbers of adoptively transferred cells in spleens of treated mice 30 days after ACT as indicated. For the untreated (UT) and control (CTX) groups where the endpoint for euthanasia was reached earlier, the mice were sacrificed and spleens harvested and stored as single-cell suspensions at −80° C. At the end of the study, all samples were stained and processed together for FACS analysis. Representative of two experiments is shown. *P<0.05, **P<0.01, ***P<0.001.
Cell activation, drug treatment and adoptive transfer. FACS-sorted CD8^+ cells from pMel-1 mice were activated with gp100 peptide ([…] (SEQ ID NO:2); 1 μM/10^6 cells/mL) either alone or in combination with MEKi (500-1000 nM) in T-cell medium supplemented with 30 units of IL2 for 48 hours unless otherwise stated. In some experiments, at 48 h cells were washed and re-incubated in IL2-containing medium supplemented with gp100 and/or anti-OX40-Ab for 72 hours. […]

Chain of MEK1 (Q02750 whole entry, species assumed): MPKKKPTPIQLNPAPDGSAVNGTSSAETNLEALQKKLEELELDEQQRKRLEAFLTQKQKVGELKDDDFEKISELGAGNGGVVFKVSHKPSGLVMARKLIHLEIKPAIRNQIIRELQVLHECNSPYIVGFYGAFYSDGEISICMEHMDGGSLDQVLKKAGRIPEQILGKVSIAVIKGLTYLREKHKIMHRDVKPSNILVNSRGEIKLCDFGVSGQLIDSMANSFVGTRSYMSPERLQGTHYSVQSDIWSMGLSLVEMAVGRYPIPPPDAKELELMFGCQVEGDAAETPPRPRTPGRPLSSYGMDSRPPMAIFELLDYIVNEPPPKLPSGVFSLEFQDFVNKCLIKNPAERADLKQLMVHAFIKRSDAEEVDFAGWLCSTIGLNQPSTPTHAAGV

As to `CC[C@H]1/C=C/C=C/C[C@@H](C)[C@H](O)[C@@](C)(O)C(=O)[C@@H](C)[C@H](O)[C@@H](C)C(=O)[C@@H](C)[C@H](O)[C@@H](C)/C=C/C(=O)O[C@@H]2[C@H](C)[C@H](CC1)O[C@]1(CC[C@H](C)[C@H](C[C@@H](C)O)O1)[C@H]2C` [oligomycin], the “proliferation of MEKi-treated CD8+ T-cells with oligomycin” value in the assay with pMel-1 CD8^+ T-cells [1] (gp100 activated, MEKi-treated cells) is “inhibition of proliferation”.
On to `COc1cccc(-c2cc(=O)c3ccccc3o2)c1N` [PD98059], for which the “direct inhibition of ERK1 or ERK2” value in the assay with ERK1 or ERK2 is listed as “does not directly inhibit”. Moreover, the “MEK-1-mediated activation of MAPK” value at MEK1 was “specifically inhibits”.
In the case of `Cn1c(=O)c(F)c(Nc2ccc(I)cc2F)c2c(=O)n(C[C@@H](O)CO)cnc21` [TAK-733], in assay [2], the “activity on Abl1, AKT3, c-RAF, CamK1, CDK2, c-Met, etc.” value was “inactive”.
Regarding `CCOC(=O)[C@@]1(CCCCCCOc2ccc(Cl)cc2)CO1` [etomoxir], the “cell proliferation of MEKi-treated pMel-1 CD8+ T-cells in the presence of etomoxir” value in the assay on pMel-1 CD8^+ T-cells [1] is given as “significant decrease in cell proliferation”.
For the compound `O=P1(N(CCCl)CCCl)NCCCO1` (stereo not shown) [CTX, Cyclophosphamide], the cure rate with AB1-HA tumor model was 75%.
Consider `Cn1cnc2c(F)c(Nc3ccc(Br)cc3Cl)c(C(=O)NOCCO)cc21` [Selumetinib], for which the “recall response, expansion of terminal effector cells (CD62L-CD44+)” value in the assay with pMel-1 CD8^+ T-cells [3] was “more than 2.5 fold”.
